Test results reported in patent US8389730B2, “Compositions and methods for the treatment of disease associated with TRP-P8 expression” (Dendreon Corporation, priority 2003, dated 2013).

Tests used:
Trp-p8 [1] = target: T1, Trp-p8 (Homo sapiens, UniProt Q7Z2W7, T58I); assay: Calcium flux assay (Fura-2) for agonists in CHO/Trp-p8 cells at 37° C.; assay type: cell-based
T1 construct: expressed in transfected cells
Protocol: FIGS. 2A-2C are graphs depicting Trp-p8 agonist-induced increases in intracellular calcium as determined by a calcium flux assay performed at 37° C.
Calcium influx was measured using a Flexstation Microplate Fluorescence Plate Reader (Molecular Devices; Sunnyvale, Calif.). A typical assay for calcium flux was performed as follows. Cells in DMEM/Ham's F-12 based medium, typically at a density of 30,000 cells/well/100 were plated in a 96-well black-walled, clear bottomed tissue culture plate (Greiner Bio-one) and incubated for 16-20 hours at 37° C. Cells in each well were incubated for one hour at 37° C. with a Fura2-AM Fluorescent Dye/Pluronic […] mixture (Molecular Probes; Eugene, Oreg.) and dissolved in the medium containing Probenecid. […]
Typically, the above described HEPES/HBSS-based buffer containing either no additional calcium or with calcium to increase the concentration to 2 mM and various concentrations of compounds (at 5-times the final concentrations) were added to each well using the robotic multi-channel pipettor. […] Signals were read with dual excitation wavelengths of 340 and 380 nm and emission wavelength of 510 nm with a cut-off filter at 495 nm. The signal was reported as the ratio of emission when excited at 340 nm to the emission when excited at 380 nm [Relative Fluorescence Units (RFU)]. […]

Trp-p8 orthologues = conditions: reported by McKemy et al. and Peier et al.; cited from earlier work
Trp-p8 [2] = conditions: cold-sensitive neurons, Trp-p8 in Xenopus oocytes, HEK293 and CHO cells; cited from earlier work

T1 sequence (Q7Z2W7 whole entry T58I): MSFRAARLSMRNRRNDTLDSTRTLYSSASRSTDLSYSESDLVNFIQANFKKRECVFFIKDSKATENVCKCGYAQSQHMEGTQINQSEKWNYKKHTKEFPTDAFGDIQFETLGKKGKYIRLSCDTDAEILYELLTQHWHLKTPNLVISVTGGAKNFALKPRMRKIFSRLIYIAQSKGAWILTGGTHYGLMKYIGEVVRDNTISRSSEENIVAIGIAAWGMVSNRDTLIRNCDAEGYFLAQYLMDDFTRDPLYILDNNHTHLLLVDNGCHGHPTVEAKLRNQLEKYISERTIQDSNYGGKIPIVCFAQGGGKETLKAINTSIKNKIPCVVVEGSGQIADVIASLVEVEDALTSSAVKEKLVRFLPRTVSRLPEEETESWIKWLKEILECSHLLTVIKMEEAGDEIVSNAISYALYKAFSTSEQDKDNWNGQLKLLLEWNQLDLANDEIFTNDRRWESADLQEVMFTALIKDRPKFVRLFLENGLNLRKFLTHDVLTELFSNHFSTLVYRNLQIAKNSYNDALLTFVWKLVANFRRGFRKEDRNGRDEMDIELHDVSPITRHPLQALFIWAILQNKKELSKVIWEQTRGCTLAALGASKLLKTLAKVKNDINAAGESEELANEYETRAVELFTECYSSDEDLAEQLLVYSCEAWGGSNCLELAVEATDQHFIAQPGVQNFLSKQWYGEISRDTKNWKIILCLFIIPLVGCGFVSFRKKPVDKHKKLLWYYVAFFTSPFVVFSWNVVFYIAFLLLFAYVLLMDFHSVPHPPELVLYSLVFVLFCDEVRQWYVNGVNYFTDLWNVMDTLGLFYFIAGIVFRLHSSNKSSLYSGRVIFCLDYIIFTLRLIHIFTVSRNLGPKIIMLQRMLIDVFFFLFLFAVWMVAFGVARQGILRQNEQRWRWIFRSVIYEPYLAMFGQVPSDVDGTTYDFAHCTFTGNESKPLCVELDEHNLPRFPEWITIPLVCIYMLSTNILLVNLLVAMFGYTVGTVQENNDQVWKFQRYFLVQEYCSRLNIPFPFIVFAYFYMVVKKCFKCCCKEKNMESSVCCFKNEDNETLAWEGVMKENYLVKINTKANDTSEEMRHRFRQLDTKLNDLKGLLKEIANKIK

SMILES: C[C@H](CCC(=O)O)C[C@H](C)C[C@H](C)C(=O)/C=C(\O)[C@H](C)C[C@H](C)C/C=C/[C@@H](C)[C@@H](O)[C@@H](C)[C@@H](O)C[C@@H]1CC[C@@](C)([C@H]2CC[C@@](C)([C@@H](C)O)O2)O1 [Ionomycin, reference compound]
- Response to positive control in calcium flux assay (FIG. 2A) (Trp-p8 [1]; 1 μM, CHO and CHO/Trp-p8 cells): respond similarly

SMILES: CC1CCC(C(C)C)C(O)C1 (stereo not shown) [Menthol, 2-isopropyl-5-methyl-cyclohexanol]
- Effective concentration in inducing calcium influx (Trp-p8 orthologues): 10 to 100 µM
- Higher temperature threshold reported for Trp-p8 activation (Trp-p8 [2]): 30-32 °C

SMILES: CC(C)[C@@H]1CC[C@@H](C)C[C@H]1C(=O)NCCc1ccccc1 [compound 1603]
- Increase in intracellular calcium (FIG. 2C) (Trp-p8 [1]; CHO/Trp-p8 cells): specific, concentration-dependent response
